Results taken from article PMC8634383, “Switching Bond: Generation of New Antimicrobial Peptides via the Incorporation of an Intramolecular Isopeptide Bond” (ACS Infectious Diseases, 2021).
Converted amounts (≈) assume the structure as drawn. Starred links: 1 amine or outer side, 2 acyl side, 3 side chain; linkers in the order of their positions; H or OH if unused. Positions of bridges follow the written chain, without caps; N, C: chain ends. Non-standard residues stand in square brackets, D forms with d. Residues, ends and D or L forms follow the SMILES beside them. Chains are numbered I, II in the order given. No end group written: not given here. εLys = N[C@@H](CCCCN[*:1])C(=O)[*:2]

Assays:
[1] = test system: Bacillus subtilis; format: cell-based; conditions: 24 h
Procedure: (§1) A panel of four bacteria, including two Gram-negative (P. aeruginosa, E. coli) and two Gram-positive (S. aureus, B. subtilis) bacterial strains, was used to test the antibacterial properties of the peptides. The bacteria P. aeruginosa, E. coli, and S. aureus belong to the ESKAPE group of pathogens, which are potential multidrug resistant strains that are majorly involved in various nosocomial infections.
(§2) The antimicrobial activity of the peptides was determined against two Gram-negative (Pseudomonas aeruginosa PA01 and the Escherichia coli K12 parental type) and two Gram-positive (Staphylococcus aureus and Bacillus subtilis) bacteria. The minimal inhibitory concentration (MIC) assays were performed as reported by Wiegand et al.,[50] using the broth microdilution method in 96-well round-bottom microplates. Briefly, bacterial cells in mid log phase were cultured in Mueller-Hinton broth (MHB) and then diluted to 10^6 CFU/mL. Aliquots of 50 μL of bacterial solution were added to 50 μL of MHB medium containing 2-fold serially diluted peptides with concentrations ranging from 1.56 to 50 μM. Plates were incubated at 37 °C for 24 h, and MICs were defined as the lowest concentration of peptide that prevented detectable turbidity. Cultures without peptides and uninoculated MHB were employed as positive and negative controls, respectively. The bacterial growth inhibition was evaluated by measuring the absorbance at 600 nm using a microplate autoreader (SynersyMx, Biotek).

[2] = test system: Pseudomonas aeruginosa PA01; format: cell-based; conditions: 24 h
Procedure: as §1, §2

[3] = test system: Escherichia coli K12 parental type; format: cell-based; conditions: K12, 24 h
Procedure: as §1, §2

[4] = in vitro; conditions: for percentage intact peptide: 20% (v/v) human plasma, 37 °C, RP-HPLC C18, 215 nm peak area; for remaining at 0.25 h, 200 μM / remaining at 0.5 h, 200 μM / remaining at 1 h, 200 μM / remaining at 2 h, 200 μM / remaining at 4 h, 200 μM: human, blood plasma (20% v/v), pH 7.4
Procedure: The stability of the peptides was assessed by incubating them in blood plasma (20% v/v) rich in proteases thrombin and plasmin for different time periods at 37 °C.
The stability of peptides in human blood plasma was measured using a literature procedure.[13],[53] Plasma was separated from red blood cells over centrifugation, frozen, and stored at −80 °C until use. Briefly, peptides were prepared as a 1 mM solution in phosphate buffered saline (pH 7.4). 20 μL of the peptide solution was diluted in 80 μL of blood plasma (20% v/v). The solution was incubated at 37 °C for different time points, and 100 μL of a mixture containing 80% acetonitrile/10% methanol/10% water was added to stop further degradation of the peptides. A cloudy solution was produced upon the addition of the stopping solution, and the sample was cooled to 4 °C for 1 h and then centrifuged at 10 000 rpm for 10 min to remove the plasma proteins as precipitate. The supernatant (50 μL) was injected onto a reversed-phase HPLC (C18 reverse phase, Bio-Rad analytical column, 250 × 4 mm, 300 Å pore size, 7 μm particle size). The column was eluted in 40 min using a linear gradient of 10–90% acetonitrile in water containing 0.1% trifluoroacetic acid (v/v) at a flow rate of 0.6 mL/min, and the absorbance was detected at 215 nm. The percentage of remaining peptide was determined by the decrease in chromatographic peak area.

[5] = test system: trypsin; assay: in vitro; conditions: for remaining at 1 h, 100 μM: trypsin in phosphate buffered saline; for peptide remaining intact after trypsin incubation: trypsin 10 μg/mL, peptide 100 μM in PBS, 1 h, RP-HPLC C18 peak area relative to t0
Excerpt: In order to overcome the proteolytic instability of peptide based drugs, the resistance of peptides to proteases is an essential prerequisite[33] because the peptides can be digested by the microbial or host protease and lose activity. Here, we tested the effect of the incorporation of an amide bond isostere on the resistance to trypsin, a serine protease known to cleave peptide bonds mainly at the C-terminal side of the amino acids lysine or arginine.
Figure 5 Resistance of peptides to trypsin digestion.
Proteolysis was measured by RP-HPLC using the following parameters, as reported.[52] Trypsin with a final concentration of 10 μg/mL was added to a solution of the peptides in phosphate buffered saline (100 μM), and the reaction was monitored over time by using reversed-phase HPLC (C18 reverse phase, Bio-Rad analytical column, 250 × 4 mm, 300 Å pore size, 7 μm particle size). The column was eluted in 40 min using a linear gradient of 10–90% acetonitrile in water containing 0.1% trifluoroacetic acid (v/v) at a flow rate of 0.6 mL/min.

[6] = test system: human monocytic (THP-1) cells; format: cell-based; conditions: 100 µM
Procedure: Peptide-induced cytotoxicity was assessed against murine macrophage (RAW 264.7) cells and human monocytic (THP-1) cells using the benzenesulfonic acid hydrate and N-methyl dibenzopyrazine methyl sulfate (XTT) dye reduction assay. […] This may in part be due to low hydrophobicity (Table 1), leading to less bacterial membrane alteration.
Figure 3 Cytotoxicity of peptides (1.56–100 μM) on human monocytic (THP-1) cells. Cell viability was analyzed and quantified by measuring the absorption at 450 nm. The data is presented as mean percent viability. All data represent mean ± SD from three independent experiments. One-way analysis of variance was used to analyze the data.
The cytotoxicity of the peptides toward the murine macrophage cells (RAW 264.7) and human monocytic (THP-1) cells was assayed using the colorimetric 2,3-bis(2-methoxy-4-nitro-5-sulfophenyl)-2H-tetrazolium-5-carboxanilide (XTT) method. […] After incubation, the cell viabilities were assessed by the XTT reaction solution (100 μL), and benzenesulfonic acid hydrate and N-methyl dibenzopyrazine methyl sulfate (mixed in a 50:1 ratio) were added for an additional 4 h incubation at 37 °C. The absorbance at 450 nm was then measured using a microplate autoreader (SynersyMx, Biotek). The percentage of cell viability was calculated relative to the 100% survival control after the blank read’s deduction.

[7] = test system: Staphylococcus aureus; format: cell-based; conditions: 24 h
Procedure: as §1, §2

Row | Molecule | MIC [1] | MIC [2] | MIC [3] | percentage intact peptide ([4]; 30 min) | remaining at 0.25 h, 200 μM [4] | remaining at 0.5 h, 200 μM [4] | remaining at 1 h, 200 μM [4] | remaining at 2 h, 200 μM [4] | remaining at 4 h, 200 μM [4] | remaining at 1 h, 100 μM [5] | drop of cell viability [6] | MIC [7] | peptide remaining intact after trypsin incubation [5] | percentage intact peptide ([4]; 120 min)
1 | CC(C)C[C@H](NC(=O)[C@H](CC(C)C)NC(=O)[C@@H](N)CCCCNC(=O)[C@H](CC(C)C)NC(=O)[C@H](CC(C)C)NC(=O)[C@H](CCCCN)NC(=O)[C@@H](N)CCCCNC(=O)[C@H](CC(C)C)NC(=O)[C@H](CC(C)C)NC(=O)[C@H](CCCCN)NC(=O)[C@@H](N)CCCCNC(=O)[C@H](CC(C)C)NC(=O)[C@H](CC(C)C)NC(=O)[C@H](CCCCN)NC(=O)[C@@H](N)CC(C)C)C(N)=O [Amp1EP] (I: H-LKLL[εLys]KLL / II: H-KKLL[εLys]LL-NH2; amide I:C-II:1) | 12.5 µM (≈ 22.6 µg/mL) | 3.125 to 6.25 µM | 6.25 µM (≈ 11.3 µg/mL) | ~85% | 85% | 85% | 66% | 60% | 37% | 37% | 50% |  |  | 
2 | CC[C@H](C)[C@H](NC(=O)CN)C(=O)NCC(=O)N[C@@H](CCCCN)C(=O)N[C@@H](Cc1ccccc1)C(=O)N[C@@H](CC(C)C)C(=O)N[C@@H](CCCCN)C(=O)NCCCC[C@H](N)C(=O)N[C@@H](C)C(=O)N[C@@H](CCCCN)C(=O)N[C@@H](CCCCN)C(=O)N[C@@H](Cc1ccccc1)C(=O)NCC(=O)NCCCC[C@H](N)C(=O)N[C@@H](C)C(=O)N[C@@H](Cc1ccccc1)C(=O)N[C@H](C(=O)NCCCC[C@H](N)C(=O)N[C@H](C(=O)N[C@@H](CC(C)C)C(=O)N[C@@H](CCCCN)C(=O)N[C@@H](CCCCN)C(N)=O)[C@@H](C)CC)C(C)C [MSIEP] (H-GIGKFLK[εLys]AKKFG[εLys]AFV[εLys]ILKK-NH2) | 6.25 to 12.5 µM | 6.25 to 12.5 µM | 12.5 µM (≈ 31 µg/mL) |  | 99% | 98% | 76% | 75% | 75% | > 66% | 20% | 6.25 to 12.5 µM |  | 
3 | GIGKFLKKAKKFGKAFVKILKK-NH2 [MSI-78] | 1.56 µM |  | 1.56 to 3.12 µM |  | 91% | 81% | 81% | 63% | 55% |  |  | 0.78 to 1.56 µM | no longer detected | 
4 | LKLLKKLLKKLLKLL-NH2 [Amp1L] | 6.25 to 12.5 µM |  | 3.12 to 6.25 µM | ~65% | 71% | 65% | 62% | 61% | 39% |  |  |  | no longer detected | ~61%
